# Laboratory results from patent publication US11952586B2, “B-cell cultivation method” (Hoffmann-La Roche Inc., priority 2017, dated 2024).
# B1: IL-4: interleukin-4, cytokine added to the feeder mix (protein, UniProt P05112 25-153, looked up)
# Interleukin-4: HKCDITLQEIIKTLNSLTEQKTLCTELTVTDIFAASKNTTEKETFCRAATVLRQFYSHHEKDTRCLGATAQQFHRHKQLIRFLKRLDRNLWGLAGLNSCPVKEANQSTLENFLERLKTIMREKYSKCSS
# Legend:
# [1] = system: single deposited B-cells; experiment: co-cultivation of single deposited B-cells with EL-4 B5 feeder cells; IgG in supernatant by ELISA; assay type: cell-based, rabbit; settings: addition of PAP-1 to the co-cultivation
# Description: Single cell sorted B-cells were cultured in 96-well plates with 200 μl/well EL-4 B5 medium with Pansorbin Cells (SAC) (Calbiochem (Merck), Darmstadt, Deutschland), EL-4 B5 cells (0-5×10^4/well) and rabbit thymocyte supernatant or cytokine mix, respectively, for 7 days at 37° C. in an atmosphere of 5% CO2 in the incubator. B-cell culture supernatants were removed for screening and the cells harvested immediately for variable region gene cloning or frozen at −80° C. in 100 μl RLT buffer (Qiagen, Hilden, Germany).
# A mixture of 0.5 μg/ml of biotinylated mouse anti-rabbit IgG antibody (Sigma-Aldrich) and 0.35 μg/ml anti-rabbit IgG HRP conjugate (Sigma-Aldrich) was transferred to 384 well streptavidin coated microtiter plates (MicroCoat Biotechnologie GmbH). Dilutions of B-cell supernatants in PBS supplemented with 0.5% BSA and 0.05% Tween®-20 were added and incubated for 90 min at RT. After repeated washing (6×) with PBST (phosphate buffered saline with 0.2% Tween buffer the plates were developed with BM Blue® HRP substrate solution and color formation was measured by absorbance at 370 nm. A commercial rabbit IgG (Sigma-Aldrich) was used as a calibration standard.
# [2] = system: hamster B-cells; experiment: co-cultivation of hamster B-cells with feeder mix additives; assay type: cell-based
# Description: (§1) Thus, in one embodiment of all methods as reported herein the feeder mix for the co-cultivation of murine- or hamster-B-cells comprises IL-4.
# (§2) Thus, in one embodiment of all methods as reported herein the feeder mix for the co-cultivation of murine-B-cells or hamster-B-cells comprises IL-6. In one embodiment the IL-6 is added at a concentration of 50 ng/ml. In one embodiment IL-6 is added at a concentration of 10 ng/ml, if high IgG-concentration is required. In one embodiment the addition of IL-6 is after three days of co-cultivation of the selected B-cells and EL-4 B5 cells.
# [3] = system: murine B-cells; experiment: co-cultivation of murine B-cells with feeder mix additives; assay type: cell-based
# Description: as §1, §2
molecule,measurement,setting,value
"O=c1ccc2c(OCCCCOc3ccccc3)c3ccoc3cc2o1 [PAP-1, 5-(4-phenoxybutoxy) psoralene]",number of B-cell clones,[1],without decreasing the number of B-cell clones
same,rbIgG secretion of B-cells,[1],increases the rbIgG secretion of B-cells in a concentration dependent manner
"IL-6: interleukin-6, cytokine added to the feeder mix",IgG-concentration,"[2]; addition of IL-6 to the feeder mix, hamster-B-cells",increased IgG-concentration
same,number of IgG+-wells/cell clones,"[3]; addition of IL-6 to the feeder mix, murine-B-cells",increased number of IgG^+-wells/cell clones
B1,number of IgG+-wells/cell clones and IgG-concentration in the supernatant,"[2]; addition of IL-4 to the feeder mix, hamster B-cells",increases the number of IgG^+-wells/cell clones as well as the IgG-concentration in the supernatant
same,number of IgG+-wells/cell clones and IgG-concentration in the supernatant,"[3]; addition of IL-4 to the feeder mix, murine B-cells",increases the number of IgG^+-wells/cell clones as well as the IgG-concentration in the supernatant
